Source: the supplement of paper PMC11562712

Assay: first-order primary biodegradation rate constant k (sorption-corrected, fDis-corrected) (d-1); higher = faster biodegradation
Protocol: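 Modified OECD 309 water-sediment test. River water plus sieved sediment (50 g wet solid/L) from European river segments (DE, CH, ES, EL) was spiked with a mixture of 129 compounds at 1 ug/L each and incubated in the dark at river temperature for 10 days. The water phase was analysed by UHPLC-Orbitrap-MS. The first-order primary biodegradation rate constant k (d-1) is k_observed, corrected for dissipation in sterile sorption controls and divided by the dissolved fraction fDis; it was fitted over 3 replicate incubations. Invalid fits (p > 0.05, n < 5, not available, concentration increase) are excluded.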

[1] = river segment: Germany (DE) H_Contam, incubation temperature 24 °C
[2] = river segment: Germany (DE) T_Contam, incubation temperature 24 °C
[3] = river segment: Germany (DE) T_Pris, incubation temperature 24 °C
[4] = river segment: Greece (EL) A_Contam, incubation temperature 19 °C
[5] = river segment: Greece (EL) G_Contam, incubation temperature 19 °C
[6] = river segment: Greece (EL) G_Pris, incubation temperature 19 °C
[7] = river segment: Greece (EL) L_Contam, incubation temperature 19 °C
[8] = river segment: Spain (ES) B_Contam, incubation temperature 24 °C
[9] = river segment: Spain (ES) C_Contam, incubation temperature 24 °C
[10] = river segment: Spain (ES) F_Pris_Salt, incubation temperature 24 °C
[11] = river segment: Spain (ES) L_Contam, incubation temperature 24 °C
[12] = river segment: Switzerland (CH) C_Contam, incubation temperature 17 °C
[13] = river segment: Switzerland (CH) R_Contam, incubation temperature 17 °C
[14] = river segment: Switzerland (CH) U_Contam, incubation temperature 17 °C
[15] = river segment: Switzerland (CH) U_Pris, incubation temperature 17 °C

Cn1c(=O)c2c(ncn2C)n(C)c1=O [Caffeine]
first-order primary biodegradation rate constant k [1]: 0.262 | first-order primary biodegradation rate constant k [2]: 0.415 | first-order primary biodegradation rate constant k [3]: 0.0734 | first-order primary biodegradation rate constant k [4]: 0.894 | first-order primary biodegradation rate constant k [5]: 0.085 | first-order primary biodegradation rate constant k [6]: 0.0394 | first-order primary biodegradation rate constant k [7]: 0.276 | first-order primary biodegradation rate constant k [8]: 1.52 | first-order primary biodegradation rate constant k [9]: 0.276 | first-order primary biodegradation rate constant k [10]: 0.215 | first-order primary biodegradation rate constant k [11]: 0.895 | first-order primary biodegradation rate constant k [12]: 0.172 | first-order primary biodegradation rate constant k [13]: 0.144 | first-order primary biodegradation rate constant k [14]: 0.368 | first-order primary biodegradation rate constant k [15]: 0.69

CCOc1nc2cccc(C(=O)O)c2n1Cc1ccc(-c2ccccc2-c2nnn[nH]2)cc1 [Candesartan]
first-order primary biodegradation rate constant k [4]: 0.00917 | first-order primary biodegradation rate constant k [5]: 0.398 | first-order primary biodegradation rate constant k [15]: 0.00966

NC(=O)N1c2ccccc2C=Cc2ccccc21 [Carbamazepine]
first-order primary biodegradation rate constant k [2]: 0.0377 | first-order primary biodegradation rate constant k [4]: 0.00808 | first-order primary biodegradation rate constant k [7]: 0.00883 | first-order primary biodegradation rate constant k [9]: 0.00861 | first-order primary biodegradation rate constant k [11]: 0.711

COC(=O)Nc1nc2ccccc2[nH]1 [Carbendazim]
first-order primary biodegradation rate constant k [1]: 0.0157 | first-order primary biodegradation rate constant k [2]: 0.155 | first-order primary biodegradation rate constant k [3]: 0.00648 | first-order primary biodegradation rate constant k [4]: 0.1 | first-order primary biodegradation rate constant k [6]: 0.0594 | first-order primary biodegradation rate constant k [8]: 0.0208 | first-order primary biodegradation rate constant k [9]: 0.00806 | first-order primary biodegradation rate constant k [10]: 0.03 | first-order primary biodegradation rate constant k [11]: 0.0322 | first-order primary biodegradation rate constant k [14]: 0.0106 | first-order primary biodegradation rate constant k [15]: 0.0192

NS(=O)(=O)c1cc2c(cc1Cl)N=CNS2(=O)=O [Chlorothiazide]
first-order primary biodegradation rate constant k [2]: 0.0266 | first-order primary biodegradation rate constant k [10]: 0.166

NS(=O)(=O)c1cc(C2(O)NC(=O)c3ccccc32)ccc1Cl (stereo not drawn) [Chlorthalidone]
first-order primary biodegradation rate constant k [1]: 0.0136 | first-order primary biodegradation rate constant k [2]: 0.0182

Cc1ccc(NC(=O)N(C)C)cc1Cl [Chlortoluron]
first-order primary biodegradation rate constant k [1]: 0.0585 | first-order primary biodegradation rate constant k [2]: 0.156 | first-order primary biodegradation rate constant k [3]: 0.00289 | first-order primary biodegradation rate constant k [4]: 0.306 | first-order primary biodegradation rate constant k [5]: 0.0396 | first-order primary biodegradation rate constant k [6]: 0.423 | first-order primary biodegradation rate constant k [7]: 0.139 | first-order primary biodegradation rate constant k [8]: 0.0189 | first-order primary biodegradation rate constant k [11]: 0.114 | first-order primary biodegradation rate constant k [14]: 0.0378 | first-order primary biodegradation rate constant k [15]: 0.0569

CC1(C)C[C@@H]1C(=O)N/C(=C\CCCCSC[C@H](N)C(=O)O)C(=O)O [Cilastatin]
first-order primary biodegradation rate constant k [1]: 5.75 | first-order primary biodegradation rate constant k [2]: 5.89 | first-order primary biodegradation rate constant k [3]: 4.29 | first-order primary biodegradation rate constant k [4]: 7.64 | first-order primary biodegradation rate constant k [5]: 5.93 | first-order primary biodegradation rate constant k [6]: 22 | first-order primary biodegradation rate constant k [7]: 5.07 | first-order primary biodegradation rate constant k [8]: 10.1 | first-order primary biodegradation rate constant k [9]: 7.57 | first-order primary biodegradation rate constant k [10]: 8.78 | first-order primary biodegradation rate constant k [11]: 12.5 | first-order primary biodegradation rate constant k [12]: 7.85 | first-order primary biodegradation rate constant k [13]: 7.32 | first-order primary biodegradation rate constant k [14]: 7.54 | first-order primary biodegradation rate constant k [15]: 10.7

CN(C)CCCC1(c2ccc(F)cc2)OCc2cc(C#N)ccc21 (stereo not drawn) [Citalopram]
first-order primary biodegradation rate constant k [1]: 0.00417 | first-order primary biodegradation rate constant k [2]: 4.92 | first-order primary biodegradation rate constant k [5]: 8.04 | first-order primary biodegradation rate constant k [7]: 19.9 | first-order primary biodegradation rate constant k [8]: 0.279 | first-order primary biodegradation rate constant k [9]: 0.06 | first-order primary biodegradation rate constant k [12]: 0.0178 | first-order primary biodegradation rate constant k [13]: 0.288 | first-order primary biodegradation rate constant k [14]: 0.0832 | first-order primary biodegradation rate constant k [15]: 0.185

CC(C)(C)C(=O)C(Oc1ccc(Cl)cc1)n1ccnc1 (stereo not drawn) [Climbazole]
first-order primary biodegradation rate constant k [2]: 0.282 | first-order primary biodegradation rate constant k [5]: 9.42 | first-order primary biodegradation rate constant k [8]: 0.421 | first-order primary biodegradation rate constant k [9]: 0.0396 | first-order primary biodegradation rate constant k [10]: 0.0487 | first-order primary biodegradation rate constant k [12]: 0.0523 | first-order primary biodegradation rate constant k [14]: 1.6 | first-order primary biodegradation rate constant k [15]: 0.68

CC(C)(Oc1ccc(Cl)cc1)C(=O)O [Clofibric acid]
first-order primary biodegradation rate constant k [1]: 0.0901 | first-order primary biodegradation rate constant k [2]: 0.0769 | first-order primary biodegradation rate constant k [3]: 0.0208 | first-order primary biodegradation rate constant k [4]: 0.0823 | first-order primary biodegradation rate constant k [6]: 0.0358 | first-order primary biodegradation rate constant k [7]: 0.0249 | first-order primary biodegradation rate constant k [8]: 0.0306 | first-order primary biodegradation rate constant k [9]: 0.0243 | first-order primary biodegradation rate constant k [11]: 0.11 | first-order primary biodegradation rate constant k [12]: 0.0409 | first-order primary biodegradation rate constant k [13]: 0.0581 | first-order primary biodegradation rate constant k [14]: 0.034 | first-order primary biodegradation rate constant k [15]: 0.0607

O=S(=O)(O)NC1CCCCC1 [Cyclamate]
first-order primary biodegradation rate constant k [1]: 0.0317 | first-order primary biodegradation rate constant k [2]: 0.223 | first-order primary biodegradation rate constant k [3]: 0.0464 | first-order primary biodegradation rate constant k [4]: 0.826 | first-order primary biodegradation rate constant k [7]: 0.0837 | first-order primary biodegradation rate constant k [9]: 0.261 | first-order primary biodegradation rate constant k [10]: 0.0914 | first-order primary biodegradation rate constant k [11]: 1.66 | first-order primary biodegradation rate constant k [12]: 0.205 | first-order primary biodegradation rate constant k [13]: 0.379 | first-order primary biodegradation rate constant k [14]: 0.24 | first-order primary biodegradation rate constant k [15]: 0.0988

CCCCCCCCCCN [Decylamine]
first-order primary biodegradation rate constant k [1]: 11.8 | first-order primary biodegradation rate constant k [2]: 54.6 | first-order primary biodegradation rate constant k [3]: 5.65 | first-order primary biodegradation rate constant k [4]: 68.6 | first-order primary biodegradation rate constant k [5]: 17.4 | first-order primary biodegradation rate constant k [6]: 29.1 | first-order primary biodegradation rate constant k [9]: 43.8 | first-order primary biodegradation rate constant k [10]: 12.1 | first-order primary biodegradation rate constant k [12]: 0.758 | first-order primary biodegradation rate constant k [13]: 11.7

CN(C)CCN1C(=O)c2ccccc2N(C)c2ccccc21 [Dibenzepin]
first-order primary biodegradation rate constant k [1]: 0.0259 | first-order primary biodegradation rate constant k [2]: 0.567 | first-order primary biodegradation rate constant k [3]: 0.127 | first-order primary biodegradation rate constant k [4]: 0.19 | first-order primary biodegradation rate constant k [6]: 0.127 | first-order primary biodegradation rate constant k [7]: 0.215 | first-order primary biodegradation rate constant k [8]: 0.0245 | first-order primary biodegradation rate constant k [9]: 0.0361 | first-order primary biodegradation rate constant k [12]: 0.0239 | first-order primary biodegradation rate constant k [13]: 0.0245 | first-order primary biodegradation rate constant k [14]: 0.0346 | first-order primary biodegradation rate constant k [15]: 0.0723

COc1c(Cl)ccc(Cl)c1C(=O)O [Dicamba]
first-order primary biodegradation rate constant k [2]: 0.109 | first-order primary biodegradation rate constant k [10]: 0.107 | first-order primary biodegradation rate constant k [11]: 0.229 | first-order primary biodegradation rate constant k [12]: 0.0368 | first-order primary biodegradation rate constant k [14]: 0.0133 | first-order primary biodegradation rate constant k [15]: 0.1

O=C(O)Cc1ccccc1Nc1c(Cl)cccc1Cl [Diclofenac]
first-order primary biodegradation rate constant k [1]: 0.137 | first-order primary biodegradation rate constant k [2]: 0.18 | first-order primary biodegradation rate constant k [4]: 0.0748 | first-order primary biodegradation rate constant k [7]: 0.0701 | first-order primary biodegradation rate constant k [8]: 0.574 | first-order primary biodegradation rate constant k [9]: 0.074 | first-order primary biodegradation rate constant k [10]: 0.0381 | first-order primary biodegradation rate constant k [11]: 0.158

COCC(C)N(C(=O)CCl)c1c(C)csc1C (stereo not drawn) [Dimethenamid]
first-order primary biodegradation rate constant k [2]: 0.036 | first-order primary biodegradation rate constant k [4]: 0.0238 | first-order primary biodegradation rate constant k [7]: 0.014 | first-order primary biodegradation rate constant k [11]: 0.0244 | first-order primary biodegradation rate constant k [13]: 0.0163 | first-order primary biodegradation rate constant k [14]: 0.0318 | first-order primary biodegradation rate constant k [15]: 0.0152

CN(C)C(=O)Nc1ccc(Cl)c(Cl)c1 [Diuron]
first-order primary biodegradation rate constant k [1]: 0.127 | first-order primary biodegradation rate constant k [2]: 0.147 | first-order primary biodegradation rate constant k [3]: 0.044 | first-order primary biodegradation rate constant k [4]: 0.283 | first-order primary biodegradation rate constant k [5]: 0.119 | first-order primary biodegradation rate constant k [6]: 0.286 | first-order primary biodegradation rate constant k [7]: 0.166 | first-order primary biodegradation rate constant k [11]: 0.0944 | first-order primary biodegradation rate constant k [14]: 0.0756 | first-order primary biodegradation rate constant k [15]: 0.0899

CCCCCCCCCCCCN [Dodecylamine]
first-order primary biodegradation rate constant k [5]: 7.74

CCOC(=O)c1ccc(O)cc1 [Ethylparaben]
first-order primary biodegradation rate constant k [4]: 0.0419 | first-order primary biodegradation rate constant k [5]: 0.114 | first-order primary biodegradation rate constant k [7]: 0.108 | first-order primary biodegradation rate constant k [8]: 0.466 | first-order primary biodegradation rate constant k [9]: 2.12 | first-order primary biodegradation rate constant k [11]: 0.364 | first-order primary biodegradation rate constant k [14]: 0.0177
